From ChEMBL document CHEMBL1201862, “PubChem BioAssay data set” (2004)
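Values below derive from 48-hour exposures of cells grown in 96-well plates, with endpoints linearly interpolated between the two concentrations bracketing the appropriate inhibition level. Here, GI50 denotes the concentration required for 50% inhibition of growth.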 Activity calls are given as the source filed them. Cut-off read from the data, not from the text of the source: active = GI50 up to about 1.1 µM and inactive = higher.

Experiments:
Test in all cases: NCI tumour cell line growth inhibition, 48 h
CAKI-1 = test system: CAKI-1
DU-145 = test system: DU-145
HCC 2998 = test system: HCC 2998
HT-29 = test system: HT-29
Hs-578T = test system: Hs-578T
K562 = test system: K562
KM12 = test system: KM12
MDA-MB-231 = test system: MDA-MB-231
MDA-MB-435 = test system: MDA-MB-435
MDA-N = test system: MDA-N
MOLT-4 = test system: MOLT-4
OVCAR-3 = test system: OVCAR-3
OVCAR-8 = test system: OVCAR-8
PC-3 = test system: PC-3
SF-539 = test system: SF-539
SK-OV-3 = test system: SK-OV-3
SN12C = test system: SN12C
T47D = test system: T47D
UACC-62 = test system: UACC-62

Compound | GI50 (CAKI-1) | GI50 (DU-145) | GI50 (HCC 2998) | GI50 (HT-29) | GI50 (Hs-578T) | GI50 (K562) | GI50 (KM12) | GI50 (MDA-MB-231) | GI50 (MDA-MB-435) | GI50 (MDA-N) | GI50 (MOLT-4) | GI50 (OVCAR-3) | GI50 (OVCAR-8) | GI50 (PC-3) | GI50 (SF-539) | GI50 (SK-OV-3) | GI50 (SN12C) | GI50 (T47D) | GI50 (UACC-62)
C=C1CC(Cn2ccc(=O)[nH]c2=O)(c2ccc(Cl)cc2)OC1=O (stereo not given) | 2.42 µM (inactive) | 9.53 µM (inactive) | 13.9 µM (inactive) | 5.41 µM (inactive) | 10.5 µM (inactive) | 0.631 µM (active) | 14 µM (inactive) | 14.6 µM (inactive) | 8.15 µM (inactive) | 4.58 µM (inactive) | 1.78 µM (inactive) | 7.1 µM (inactive) | 7.87 µM (inactive) | 6.64 µM (inactive) | 15.6 µM (inactive) | 15 µM (inactive) | 11.6 µM (inactive) | 3.03 µM (inactive) | 5.15 µM (inactive)
O=C(NNC(=S)Nc1ccc(Cl)cc1)C12CC3CC(CC(C3)C1)C2 | 7.19 µM (inactive) | 11.6 µM (inactive) | 7.1 µM (inactive) | 3.78 µM (inactive) | 17.1 µM (inactive) | 4.24 µM (inactive) | 9.84 µM (inactive) | 3.88 µM (inactive) | 7.53 µM (inactive) | 10.2 µM (inactive) | 1.98 µM (inactive) | 2.45 µM (inactive) | 3.52 µM (inactive) | 3.19 µM (inactive) | 3.93 µM (inactive) | 9.79 µM (inactive) | 6.52 µM (inactive) | 4.59 µM (inactive) | 3.88 µM (inactive)
O=c1[nH][nH]c(=O)n1Cc1ccccc1 | > 100 µM (inactive) | > 100 µM (inactive) | > 100 µM (inactive) | > 100 µM (inactive) | > 100 µM (inactive) | > 100 µM (inactive) | > 100 µM (inactive) | > 100 µM (inactive) | > 100 µM (inactive) | > 100 µM (inactive) | > 100 µM (inactive) | > 100 µM (inactive) | > 100 µM (inactive) | > 100 µM (inactive) | > 100 µM (inactive) | > 100 µM (inactive) | > 100 µM (inactive) | > 100 µM (inactive) | > 100 µM (inactive)
CC[C@@]1(O)C(=O)OCc2c1cc1n(c2=O)Cc2c-1nc1ccccc1c2/C=N\NC(=O)C[n+]1ccccc1 | 0.151 µM (active) | 0.0944 µM (active) | 8.13 µM (inactive) | 2.33 µM (inactive) | > 64.1 µM (inactive) | 1.02 µM (active) | 8.55 µM (inactive) | 64.6 µM (inactive) | 3.56 µM (inactive) | 4.02 µM (inactive) | 0.0552 µM (active) | 7.78 µM (inactive) | 0.398 µM (active) | 4.49 µM (inactive) | 0.0752 µM (active) | 0.617 µM (active) | 0.119 µM (active) | 0.0346 µM (active) | 0.0541 µM (active)
CN(Cc1cnc2nc(N)nc(N)c2n1)c1ccc(C(=O)NCCCC(=O)O)cc1 | > 27.5 µM (inactive) | 8.49 µM (inactive) | > 100 µM (inactive) | > 100 µM (inactive) | > 92.3 µM (inactive) | 1.2 µM (inactive) | 8.38 µM (inactive) | > 100 µM (inactive) | > 25.4 µM (inactive) | 7.57 µM (inactive) | 6.53 µM (inactive) | > 93.5 µM (inactive) | 7.55 µM (inactive) | 0.773 µM (active) | 8.75 µM (inactive) | 97.9 µM (inactive) | > 100 µM (inactive) | > 100 µM (inactive) | 12.6 µM (inactive)
Nc1ncc(N)c(NCC2(CO)CC(CCc3ccccc3)C2)n1 (stereo not given) | 7.73 µM (inactive) | 11.2 µM (inactive) | 11.3 µM (inactive) | 6.21 µM (inactive) | 9.55 µM (inactive) | 2.12 µM (inactive) | 10 µM (inactive) | 4.65 µM (inactive) | 11 µM (inactive) | 8.28 µM (inactive) | 0.393 µM (active) | 2.26 µM (inactive) | 10.5 µM (inactive) | 5.89 µM (inactive) | 2.7 µM (inactive) | 12.2 µM (inactive) | 7.67 µM (inactive) | 1.11 µM (active) | 5.81 µM (inactive)
CC(=O)N1CCn2c1nc1cc(Cl)ccc12 | > 100 µM (inactive) | 33.4 µM (inactive) | > 100 µM (inactive) | > 100 µM (inactive) | 31.4 µM (inactive) | > 100 µM (inactive) | > 100 µM (inactive) | 34.5 µM (inactive) | > 100 µM (inactive) | > 100 µM (inactive) | > 100 µM (inactive) | 95.1 µM (inactive) | 74.3 µM (inactive) | 47.5 µM (inactive) | 26.4 µM (inactive) | 25.1 µM (inactive) | > 100 µM (inactive) | 21.4 µM (inactive) | 33.5 µM (inactive)
c1ccc(-c2cc(-c3cc(-c4ccccc4)[nH]n3)[nH]n2)cc1 | > 100 µM (inactive) | > 100 µM (inactive) | > 100 µM (inactive) | > 100 µM (inactive) | > 100 µM (inactive) | > 100 µM (inactive) | > 100 µM (inactive) | > 100 µM (inactive) | > 100 µM (inactive) | > 100 µM (inactive) | > 100 µM (inactive) | > 100 µM (inactive) | > 100 µM (inactive) | > 100 µM (inactive) | > 100 µM (inactive) | > 100 µM (inactive) | > 100 µM (inactive) | > 100 µM (inactive) | > 100 µM (inactive)
CC1=CCCC(C)(O)C2CC(CCC3(C)OC3CC1)C(C)C(=O)O2 (stereo not given) | > 100 µM (inactive) | > 100 µM (inactive) | > 100 µM (inactive) | > 100 µM (inactive) | > 100 µM (inactive) | > 100 µM (inactive) | > 100 µM (inactive) | > 100 µM (inactive) | > 100 µM (inactive) | > 100 µM (inactive) | 43.7 µM (inactive) | > 100 µM (inactive) | > 100 µM (inactive) | > 100 µM (inactive) | > 100 µM (inactive) | > 100 µM (inactive) | > 100 µM (inactive) | > 100 µM (inactive) | > 100 µM (inactive)
C/C(=N/NC(N)=S)c1ccc[nH]1 | > 100 µM (inactive) | > 100 µM (inactive) | > 100 µM (inactive) | > 100 µM (inactive) | > 100 µM (inactive) | 37.9 µM (inactive) | > 100 µM (inactive) | > 100 µM (inactive) | > 100 µM (inactive) | > 100 µM (inactive) | > 100 µM (inactive) | > 100 µM (inactive) | > 100 µM (inactive) | > 100 µM (inactive) | > 100 µM (inactive) | > 100 µM (inactive) | > 100 µM (inactive) | 84.3 µM (inactive) | > 100 µM (inactive)
C[N+](C)(C)c1nc(N)nc2c1ncn2C1OC(CO)C(O)C1O (stereo not given) | > 100 µM (inactive) | > 100 µM (inactive) | > 100 µM (inactive) | > 100 µM (inactive) | > 100 µM (inactive) | > 100 µM (inactive) | > 100 µM (inactive) | > 100 µM (inactive) | > 100 µM (inactive) | > 100 µM (inactive) | > 100 µM (inactive) | > 100 µM (inactive) | > 100 µM (inactive) | > 100 µM (inactive) | > 100 µM (inactive) | > 100 µM (inactive) | > 100 µM (inactive) | > 100 µM (inactive) | > 100 µM (inactive)
Cc1nc2c(=O)n(C)c(=O)nc-2n(CCO)c1C | > 100 µM (inactive) | > 100 µM (inactive) | > 100 µM (inactive) | > 100 µM (inactive) | > 100 µM (inactive) | > 100 µM (inactive) | > 100 µM (inactive) | > 100 µM (inactive) | > 100 µM (inactive) | > 100 µM (inactive) | > 100 µM (inactive) | > 100 µM (inactive) | > 100 µM (inactive) | > 100 µM (inactive) | > 100 µM (inactive) | > 100 µM (inactive) | > 100 µM (inactive) | > 100 µM (inactive) | > 100 µM (inactive)
O=[N+]([O-])/C(Cl)=C/C(=C1/Nc2ccccc2O1)[N+](=O)[O-] | 21.4 µM (inactive) | 19.2 µM (inactive) | 14.6 µM (inactive) | 32.8 µM (inactive) | 27.2 µM (inactive) | 32.7 µM (inactive) | 19.2 µM (inactive) | 30.1 µM (inactive) | 15.9 µM (inactive) | 18.5 µM (inactive) | 19.8 µM (inactive) | 19.3 µM (inactive) | 17.9 µM (inactive) | 14.1 µM (inactive) | 15.5 µM (inactive) | 24 µM (inactive) | 36.1 µM (inactive) | 32.6 µM (inactive) | 23.4 µM (inactive)
c1ccc2c(c1)cc1c3[nH]c4ccccc4c3ccn21 | > 10 µM (inactive) | > 10 µM (inactive) | > 10 µM (inactive) | > 10 µM (inactive) | > 10 µM (inactive) | > 10 µM (inactive) | > 10 µM (inactive) | > 10 µM (inactive) | > 10 µM (inactive) | > 10 µM (inactive) | > 10 µM (inactive) | > 10 µM (inactive) | > 10 µM (inactive) | > 10 µM (inactive) | > 10 µM (inactive) | > 10 µM (inactive) | > 10 µM (inactive) | > 10 µM (inactive) | > 10 µM (inactive)
O=S(=O)(O)C(Cc1nc2ccccc2[nH]1)S(=O)(=O)OCCC1S(=O)(=O)OCCOS1(=O)=O (stereo not given) | > 100 µM (inactive) | > 100 µM (inactive) | > 100 µM (inactive) | > 100 µM (inactive) | > 100 µM (inactive) | > 100 µM (inactive) | > 100 µM (inactive) | > 100 µM (inactive) | > 100 µM (inactive) | > 100 µM (inactive) | > 100 µM (inactive) | > 100 µM (inactive) | > 100 µM (inactive) | > 100 µM (inactive) | > 100 µM (inactive) | > 100 µM (inactive) | > 100 µM (inactive) | > 100 µM (inactive) | > 100 µM (inactive)
